“And” between values parts separate entries of the source, which are not always exact repeats. Identical values can stand only once. Like-named read-outs stand apart in the source and are kept apart here.
Legend:
IPK from M. maripaludis = IPK from M. maripaludis (Methanococcus maripaludis, UniProt Q6LWR2); assay: Steady-state kinetics, coupled pyruvate kinase-lactate dehydrogenase assay, IPK
IPK from B. floridae = IPK from B. floridae (Branchiostoma floridae, UniProt A0A9J7KY69); assay: Steady-state kinetics, coupled assay, IPK
IPK from A. thaliana = IPK from A. thaliana (Arabidopsis thaliana, UniProt Q8H1F7); assay: Kinetics, coupled assay, IPK
[1] = test system: R. castenholzii MDD homolog with B. floridae PMK; assay type: biochemical
[2] = test system: IPK and MDD from B. floridae; assay: GC-MS in vitro alternative MVA pathway reaction; assay type: biochemical
Source text: (§1) The in vitro classical MVA pathway reactions for S. solfataricus, A. thaliana, and B. floridae yield 39.2%, 48.7%, and 52.1% conversion of MVAP (3) to 5-EA (6), respectively (FIG. 3). The in vitro classical MVA pathway reaction from R. castenholzii (using B. floridae PMK to complete the missing step) yields less then 0.2% conversion to 5-EA (FIG. 3). In contrast, the in vitro alternative MVA pathway from R. castenholzii enzymes yields a 2.0% conversion of MVAP (3) to 5-EA (6). B. floridae, A. thaliana, and S. solfataricus were tested for a possible alternative MVA pathway components using their IPKs and MDDs.
(§2) All GC-MS assays were carried out in two steps. First, 1 μM of each of two enzymes (PMK and MDD for the classical MVA pathway, MDD and IPK for the alternative MVA pathway) was incubated for 30 min with 500 μM (RS)-MVAP, 4 mM ATP, and 10 mM MgCl2 buffered with 50 mM Tris-HCl, pH 8.0. Second, 40 μl of this reaction was transferred to a glass vial containing 10 mM MgCl2 buffered with 50 mM Tris-HCl, pH 8.0, containing at least a 150-fold excess of each of the following enzymes: E. coli isopentenyl diphosphate isomerase (IPPI), E. coli farnesyl diphosphate synthase (FPPS), and tobacco 5-epi-aristolochene synthase (TEAS). This reaction mixture was overlaid with ethyl acetate, incubated overnight, and vortexed to extract hydrocarbons from the aqueous layer. GC-MS assays were performed as previously described (18). All values were compared to a control reaction, where FPP was added in place of MVA pathway enzymes at an appropriate concentration to simulate complete turnover of MVAP.

[3] = test system: IPK and MDD from S. solfataricus; assay: GC-MS in vitro alternative MVA pathway reaction; assay type: biochemical
Source text: as §1, §2

[4] = test system: IPK and MDD from A. thaliana; assay: GC-MS in vitro alternative MVA pathway reaction; assay type: biochemical
Source text: as §1, §2

[5] = test system: PMK and MDD from S. solfataricus; assay: GC-MS in vitro classical MVA pathway reaction; assay type: biochemical; details: S. solfataricus enzymes, 500 μM (RS)-MVAP, relative to FPP control
Experimental: (§3) GC-MS quantification of fully functional alternative and classical MVA pathways. To confirm that the functional R. castenholzii MPD (MDD-like protein sequence) catalyzes the transformation of MVAP (3) to IP (4) in a reconstituted in vitro pathway, a five-enzyme in vitro reaction mixture was assembled. Briefly, MVAP (3) and ATP were incubated for 30 min with MPD and IPK from R. castenholzii. The reaction mixture was then diluted into a mixture containing all necessary downstream enzymes to biosynthesize the GC-detectable sesquiterpene 5-epi-aristolochene (5-EA, 6). Similar reactions were performed for the in vitro reconstitution of the classical MVA pathway using PMK and MDD from each respective organism.
as §2

[6] = test system: PMK and MDD from B. floridae; assay: GC-MS in vitro classical MVA pathway reaction; assay type: biochemical; details: B. floridae enzymes, 500 μM (RS)-MVAP, relative to FPP control
Experimental: as §3, §2

[7] = test system: PMK and MDD from A. thaliana; assay: GC-MS in vitro classical MVA pathway reaction; assay type: biochemical; details: A. thaliana enzymes, 500 μM (RS)-MVAP, relative to FPP control
Experimental: as §3, §2

MJ0403 = MJ0403 (Methanocaldococcus jannaschii, UniProt Q57846); assay: In vitro decarboxylase activity of MJ0403; assay type: biochemical, M. jannaschii
Source text: MJ0403 encodes a protein that is similar in sequence to subunit B of class III extradiol ring-cleavage dioxygenases and is also homologous to the human protein MEMO (mediator of erbB2-driven cell motility).

PMK from S. solfataricus = PMK from S. solfataricus (Saccharolobus solfataricus, UniProt Q97UL6); assay: Steady-state kinetics, coupled assay, PMK; assay type: biochemical
PMK from B. floridae = PMK from B. floridae (Branchiostoma floridae, UniProt C3Y1G0); assay: Steady-state kinetics, coupled assay, PMK; assay type: biochemical; details: substrate MVAP
[8] = test system: MPD and IPK from R. castenholzii; assay: GC-MS in vitro alternative MVA pathway reaction; assay type: biochemical
Experimental: as §3
All GC-MS assays were carried out in two steps. First, 1 μM of each of two enzymes (PMK and MDD for the classical MVA pathway, MDD and IPK for the alternative MVA pathway) was incubated for 30 min with 500 μM (RS)-MVAP, 4 mM ATP, and 10 mM MgCl2 buffered with 50 mM Tris-HCl, pH 8.0. Second, 40 μl of this reaction was transferred to a glass vial containing 10 mM MgCl2 buffered with 50 mM Tris-HCl, pH 8.0, containing at least a 150-fold excess of each of the following enzymes: E. coli isopentenyl diphosphate isomerase (IPPI), E. coli farnesyl diphosphate synthase (FPPS), and tobacco 5-epi-aristolochene synthase (TEAS). […]

[9] = test system: MPD from R. castenholzii (SEQ ID NO: 1); assay: Steady-state kinetics, coupled assay, MPD; assay type: biochemical
Experimental: (§4) Instead, it behaves as an MPD and catalyzes the decarboxylation of MVAP (3) to IP (4) with a kcat of 0.94 s^−1 and an apparent KM for MVAP of 1.150 mM (Table 2). This enzyme, by sequence homologous to MDD, has acquired an unexpected new function as a bona fide MPD playing the role of the long sought MPD of the alternative MVA pathway.
(§5) Steady-state kinetic analyses.

MDD from S. solfataricus = MDD from S. solfataricus (Saccharolobus solfataricus, UniProt Q97UL5); assay: Steady-state kinetics, MDD; assay type: biochemical; details: steady state conditions, kinetic parameters could not be assigned
MDD from B. floridae = MDD from B. floridae (Branchiostoma floridae, UniProt C3ZGP5); assay: Steady-state kinetics, coupled assay, MDD; assay type: biochemical; details: substrate MVAPP
[10] = test system: MDD homolog from R. castenholzii; assay: Steady-state kinetics, MDD homolog tested as MDD; assay type: biochemical
Experimental: as §4, §5

[11] = substrate: CC(O)(CCOP(=O)(O)O)CC(=O)O; assay: purified protein, by the assay type; details: other: substrate MVAP; A. thaliana PMK
[12] = substrate: C=C(C)CCOP(=O)(O)O; assay: purified protein, by the assay type; details: other: substrate IP
[13] = substrate: CC(O)(CCOP(=O)(O)OP(=O)(O)O)CC(=O)O; assay: purified protein, by the assay type; details: other: substrate MVAPP; A. thaliana MDD

MDD from B. floridae, sequence (C3ZGP5 1-409): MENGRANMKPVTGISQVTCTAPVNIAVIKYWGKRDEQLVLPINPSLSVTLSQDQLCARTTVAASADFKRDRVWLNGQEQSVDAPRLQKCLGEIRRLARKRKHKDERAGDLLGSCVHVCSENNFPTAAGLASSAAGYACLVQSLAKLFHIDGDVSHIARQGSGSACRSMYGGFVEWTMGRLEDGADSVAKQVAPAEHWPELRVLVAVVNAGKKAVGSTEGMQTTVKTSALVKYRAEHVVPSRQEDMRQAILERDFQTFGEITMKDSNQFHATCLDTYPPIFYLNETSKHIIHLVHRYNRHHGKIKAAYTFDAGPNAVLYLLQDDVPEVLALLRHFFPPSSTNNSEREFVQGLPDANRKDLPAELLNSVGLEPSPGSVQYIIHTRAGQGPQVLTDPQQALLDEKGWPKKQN
PMK from S. solfataricus, sequence (Q97UL6 whole entry): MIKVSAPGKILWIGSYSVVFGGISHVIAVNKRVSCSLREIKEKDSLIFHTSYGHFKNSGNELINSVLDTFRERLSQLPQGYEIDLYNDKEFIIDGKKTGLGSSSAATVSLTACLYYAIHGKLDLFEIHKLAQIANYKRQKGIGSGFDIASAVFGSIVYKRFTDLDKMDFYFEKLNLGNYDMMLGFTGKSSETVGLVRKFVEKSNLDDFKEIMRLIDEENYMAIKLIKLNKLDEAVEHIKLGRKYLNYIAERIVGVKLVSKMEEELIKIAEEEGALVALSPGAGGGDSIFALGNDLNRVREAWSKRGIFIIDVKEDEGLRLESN
MJ0403, sequence (Q57846 whole entry): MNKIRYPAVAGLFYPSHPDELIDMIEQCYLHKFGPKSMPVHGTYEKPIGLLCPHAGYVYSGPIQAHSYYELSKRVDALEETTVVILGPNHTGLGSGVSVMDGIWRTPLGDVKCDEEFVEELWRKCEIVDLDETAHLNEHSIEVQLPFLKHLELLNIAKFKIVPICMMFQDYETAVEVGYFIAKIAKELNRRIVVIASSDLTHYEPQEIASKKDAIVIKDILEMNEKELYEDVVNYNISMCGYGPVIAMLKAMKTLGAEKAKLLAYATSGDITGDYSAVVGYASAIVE
PMK from B. floridae, sequence (C3Y1G0 1-201): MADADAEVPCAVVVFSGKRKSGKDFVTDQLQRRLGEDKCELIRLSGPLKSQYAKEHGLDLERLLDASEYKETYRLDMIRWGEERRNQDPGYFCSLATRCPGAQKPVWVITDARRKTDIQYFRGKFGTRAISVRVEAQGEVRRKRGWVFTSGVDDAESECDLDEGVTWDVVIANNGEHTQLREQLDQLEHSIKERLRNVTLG
MDD from S. solfataricus, sequence (Q97UL5 whole entry): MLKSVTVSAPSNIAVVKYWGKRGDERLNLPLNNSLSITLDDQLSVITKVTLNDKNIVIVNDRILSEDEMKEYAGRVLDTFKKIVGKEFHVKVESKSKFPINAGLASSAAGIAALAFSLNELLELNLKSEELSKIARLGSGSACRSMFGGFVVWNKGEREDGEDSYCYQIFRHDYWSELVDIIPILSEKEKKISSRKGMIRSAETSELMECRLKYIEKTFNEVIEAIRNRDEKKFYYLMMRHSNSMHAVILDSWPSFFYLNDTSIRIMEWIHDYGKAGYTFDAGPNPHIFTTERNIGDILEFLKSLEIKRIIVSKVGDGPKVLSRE

Molecule: C=C(C)CCOP(=O)(O)O [IP, isopentenyl phosphate]
- Ki (IPK from M. maripaludis): 877 µM
- Ki (IPK from B. floridae): 2.82 mM
- Ki (IPK from A. thaliana): 522 µM

Molecule: CC(O)(CCOP(=O)(O)O)CC(=O)O (stereo not shown) [MVAP, phosphomevalonate]
- conversion to 5-EA [1]: < 0.2%
- 5-EA formation [2]: do not yield any detectable 5-EA
- 5-EA formation [3]: do not yield any detectable 5-EA
- 5-EA formation [4]: do not yield any detectable 5-EA
- conversion of MVAP to 5-EA [5]: 39.2%
- conversion of MVAP to 5-EA [6]: 52.1%
- conversion of MVAP to 5-EA [7]: 48.7%
- turnover of MVAP (decarboxylase activity) (MJ0403): failed to show any turnover
- Ki (PMK from S. solfataricus): 5.5 mM
- kcat (PMK from S. solfataricus; substrate MVAP, S. solfataricus PMK): 1.98 (±0.10) s^−1
- kcat (PMK from B. floridae): 12.6 (±0.4) s^−1
- conversion of MVAP to 5-EA [8]: 2.0%
- Km ([9]; decarboxylation of MVAP to IP, read-out: apparent KM for MVAP): 1.15 mM
- kcat ([9]; substrate MVAP): 0.94 s^−1 and 0.94 (±0.08) s^−1
- Km ([9]; substrate MVAP, read-out: KM): 1.15 mM

Molecule: CC(O)(CCOP(=O)(O)OP(=O)(O)O)CC(=O)O (racemic) [MVAPP, diphosphomevalonate]
- rate of decarboxylation of MVAPP (MDD from S. solfataricus): very slow rate
- Km (MDD from B. floridae): 15.1 µM
- kcat (MDD from B. floridae): 1.36 (±0.09) s^−1
- decarboxylation of MVAPP to IPP at a measurable rate [10]: does not catalyze

B1: PMK from A. thaliana (Arabidopsis thaliana) (protein)
chain: MAVVASAPGKVLMTGGYLVLEKPNAGLVLSTNARFYAIVKPINEEVKPESWAWKWTDVKLTSPQLSRESMYKLSLNHLTLQSVSASDSRNPFVEHAIQYAIAAAHLATEKDKESLHKLLLQGLDITILGSNDFYSYRNQIESAGLPLTPESLGTLAPFASITFNAAESNGANSKPEVAKTGLGSSAAMTTAVVAALLHYLGVVDLSDPCKEGKFGCSDLDVIHMIAQTSHCLAQGKVGSGFDVSCAVYGSQRYVRFSPEVLSFAQVAVTGLPLNEVIGTILKGKWDNKRTEFSLPPLMNLFLGEPGSGGSSTPSMVGAVKKWQMSDPEKARENWQNLSDANLELETKLNDLSKLAKDHWDVYLRVIKSCSVLTSEKWVLHATEPINEAIIKELLEAREAMLRIRILMRQMGEAASVPIEPESQTQLLDSTMSAEGVLLAGVPGAGGFDAIFAITLGDSGTKLTQAWSSHNVLALLVREDPHGVCLESGDPRTTCITSGVSSIHLE
- Km [11]: 11.8 (±2.0) μM
- kcat [11]: 20.9 ± 0.7 s⁻¹
- kcat/Km [11]: 1.77e+06 ± 310000 M⁻¹ s⁻¹

B2: IPK from M. maripaludis (Methanococcus maripaludis S2) (protein)
chain: MFAILKLGGSILCDKNIPYSINWENLENIAIEIKEAIEYYKSKNEEFKLIIVHGGGSFGHPVAKKYLKDGKFVDMGKGYWEIQKAMRKFNNIVIEELQNFEIPAVSIQASSFITFDNESNLHFDTNAVEKMLDKGLIPVIHGDIVIDEKTDNFKIFSGDHALPFLSKKLNPDLSLHASDVDGVWDLNFKIIENINSKNIEDVLKSLKPSNKEDVTGGMHLKVMECYNLGIKTIIFNGNKKRNIYNALLKNVKGTLIN
- Km ([12]; M. maripaludis IPK): 21.4 (±4.3) μM
- kcat ([12]; M. maripaludis IPK): 15.2 s⁻¹
- kcat/Km ([12]; M. maripaludis IPK): 710000 M⁻¹ s⁻¹

B3: IPK from A. thaliana (Arabidopsis thaliana) (protein)
chain: MELNISESRSRSIRCIVKLGGAAITCKNELEKIHDENLEVVACQLRQAMLEGSAPSKVIGMDWSKRPGSSEISCDVDDIGDQKSSEFSKFVVVHGAGSFGHFQASRSGVHKGGLEKPIVKAGFVATRISVTNLNLEIVRALAREGIPTIGMSPFSCGWSTSKRDVASADLATVAKTIDSGFVPVLHGDAVLDNILGCTILSGDVIIRHLADHLKPEYVVFLTDVLGVYDRPPSPSEPDAVLLKEIAVGEDGSWKVVNPLLEHTDKKVDYSVAAHDTTGGMETKISEAAMIAKLGVDVYIVKAATTHSQRALNGDLRDSVPEDWLGTIIRFSK
- Km ([12]; A. thaliana IPK): 0.79 (±0.35) μM
- kcat ([12]; A. thaliana IPK): 1.9 s⁻¹
- kcat/Km ([12]; A. thaliana IPK): 2.4e+06 M⁻¹ s⁻¹

B4: MDD from A. thaliana (Arabidopsis thaliana) (protein)
chain: MAEEKWVVMVTAQTPTNIAVIKYWGKRDEVRILPINDSISVTLDPDHLCTLTTVAVSPSFDRDRMWLNGKEISLSGSRYQNCLREIRSRADDVEDKEKGIKIAKKDWEKLHLHIASHNNFPTAAGLASSAAGFACLVFALAKLMNVNEDPSQLSAIARQGSGSACRSLFGGFVKWNMGNKEDGSDSVAVQLVDDKHWDDLVIIIAVVSSRQKETSSTSGMRESVETSLLLQHRAKEVVPVRILQMEEAIKNRDFTSFTKLTCSDSNQFHAVCMDTSPPIFYMNDTSHRIISLVEKWNRSAGTPEIAYTFDAGPNAVMIARNRKVAVELLQGLLYCFPPKPDTDMKSYVLGDTSIVKEAGLEGELPQGIKDKIGSQDQKGEVSYFICSRPGRGPVVLQDQTQALLHPQTGLPK
- Km [13]: 15.7 (±5.0) μM
- kcat [13]: 2.02 ± 0.13 s⁻¹
- kcat/Km [13]: 130000 ± 40000 M⁻¹ s⁻¹

B5: IPK from T. adhaerens (Trichoplax adhaerens) (protein)
chain: MALENRHVDCIIKLGGSAITSKQHLEKANTQAINIAASHVHEMTRKCVIVHGAGSFGHFHAKKYNIATGFNDTDFEQQRIGFSQTRLSVTKLNHIIVQALIEKDVPAVSISPCGLWKTTDRSVTSTFLQPINDLLRAGFVPVVHGDAVIDTSLGCTILSGDTIIQILAENLCPKRIIFITDTNGIYDRPPHNDDAKLLRYISVTKDGKVTNEIETSQLEHDVTGGVQTKIASAAHIVSKCNIPVHVVKLGSAAAWKLLDKGELEESDIATTITLQESEYPK
- Km ([12]; T. adhaerens IPK): 3.1 (±1.6) μM
- kcat ([12]; T. adhaerens IPK): 2.4 s⁻¹
- kcat/Km ([12]; T. adhaerens IPK): 770000 M⁻¹ s⁻¹

B6: IPK from B. floridae (Branchiostoma floridae) (protein)
chain: MVSSSRSKVMAEADASLECIVKLGGSAVTDKSTLETPRLDAIRAAADIISQVRGRCIVVHGAGSFGHFQAREHGVVWGYRDKETDTEVQTVKLGFCRTRQSVTKLLHIITEEFVRLGIPAVGVSPLSSWVTDDASVVKADTDNIRDMLLEGFLPVMHGDAVLDRKRGCTILSGDTIIKHLCSVFRPPRVVFLTDVPGIYDRPPEQPGAQLIPEIQVDRDRKLHVSIATSSQAHDVTGGIALKLKSAIDIVTESNGHTCVMVCGIQSQAAVRACVEGQLPQGTGTIVQLNISKHPDEVT
- Km ([12]; B. floridae IPK): 13.3 (±2.0) μM
- kcat ([12]; B. floridae IPK): 27.2 s⁻¹
- kcat/Km ([12]; B. floridae IPK): 2.05e+06 M⁻¹ s⁻¹

Source: patent US20140356854A1, “METHODS AND COMPOSITIONS RELATING TO MEVALONATE PHOSPHATE DECARBOXYLASE” (Salk Institute for Biological Studies, priority 2013, published 2014)
